Biological target: T1, recombinant P. falciparum DHODH (Plasmodium falciparum, UniProt Q08210)
T1 sequence (Q08210 24-569): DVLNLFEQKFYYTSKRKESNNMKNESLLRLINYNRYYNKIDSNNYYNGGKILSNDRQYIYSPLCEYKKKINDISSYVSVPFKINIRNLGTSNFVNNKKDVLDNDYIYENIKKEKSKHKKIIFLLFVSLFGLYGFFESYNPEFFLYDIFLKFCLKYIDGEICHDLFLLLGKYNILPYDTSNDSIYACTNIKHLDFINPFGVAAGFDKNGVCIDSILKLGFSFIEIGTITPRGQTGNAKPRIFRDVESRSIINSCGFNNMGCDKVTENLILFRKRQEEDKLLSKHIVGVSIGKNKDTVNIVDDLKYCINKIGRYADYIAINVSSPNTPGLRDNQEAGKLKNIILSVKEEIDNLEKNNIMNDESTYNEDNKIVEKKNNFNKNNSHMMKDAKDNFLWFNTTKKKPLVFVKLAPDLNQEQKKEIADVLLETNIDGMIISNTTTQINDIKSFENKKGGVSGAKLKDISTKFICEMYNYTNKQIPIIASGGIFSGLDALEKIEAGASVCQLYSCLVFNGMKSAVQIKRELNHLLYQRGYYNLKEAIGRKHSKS
Assay: P. falciparum DHODH enzymatic assay
Settings: biochemical assay

`Cc1ccc(-n2nc(OC(C)C)c(Oc3c(F)cccc3F)c2C)nn1` [22a, 3-(4-(2,6-Difluorophenoxy)-3-isopropoxy-5-methyl-1H-pyrazol-1-yl)-6-methylpyridazine] was tested, and the “inhibition of recombinant P. falciparum DHODH” value was “completely devoid of effect”.

With `Cc1c(Oc2c(F)cccc2F)c(OC(C)C)nn1-c1ccc(C2CC2)nn1` [compound 10q, 3-Cyclopropyl-6-(4-(2,6-difluorophenoxy)-3-isopropoxy-5-methyl-1H-pyrazol-1-yl)pyridazine] the “inhibition of recombinant P. falciparum DHODH” value was “completely devoid of effect”.

— publication PMC4516315 (Journal of Medicinal Chemistry, 2015)
